Source: paper PMC8070745, “FEN1 Blockade for Platinum Chemo-Sensitization and Synthetic Lethality in Epithelial Ovarian Cancers” (Cancers, 2021)

How the values were obtained:
PEO4 cells = assay: Annexin V apoptosis detection, PEO4; format: cell-based, human; settings: FEN1i plus cisplatin
Description: The samples were analysed on a Beckman-Coulter FC500 flow cytometer using a 488nm laser for excitation and emission data for PI collected using a 620nm bandpass filter (FL3) and a 525nm bandpass filter (FL1) for FITC-anti-phospho-Histone H2A.X.
Apoptosis detection: Annexin V detection kit (556547, BD Biosciences) was used to quantify apoptotic cells. Briefly, cells were trypsinized, washed with PBS and the cellular pellet was re-suspended in Anexin Binding Buffer (1×). Following, FITC Anexin V and Propidium Iodide were added to the cells. After incubation, Anexin binding Buffer (1×) was added to each tube. All the samples were analysed on a Beckman-Coulter FC500 flow cytometer. The percentage of apoptotic cells was determined (late apoptotic = FITC-Annexin V positive, PI positive early apoptotic = FITC-Annexin V positive, PI negative; live cells = FITC-Annexin V negative, PI negative) and compared for untreated and treated samples. Graphical representation and statistical analysis was performed in GraphPad Prism 7 (GraphPad, La Jolla, USA).
3D Spheroid assays: A2780_control and A2780 FEN1_ KO as well as A2780cis_control and A2780cis FEN1_ KO cells were seeded at 4500 cells/cm2 density in ultra-low attachment 6-well plates (174932, Thermo Fisher Scientific) and cultured in 3D Tumorsphere Medium (C28070, PromoCell, UK) at 37°C in a 5% CO2 atmosphere. […]

[1] = tested on: XRCC1 deficient HeLa cells; assay: FEN1 inhibitor cytotoxicity, XRCC1 deficient HeLa; format: cell-based; settings: vs HeLa control
POLβ KO A2780cis cells = assay: γH2AX analysis, POLβ KO A2780cis; format: cell-based, human; settings: FEN1i-treated
Description: Graphical representation and statistical analysis of mean tail moment was performed in GraphPad Prism 6 (GraphPad, La Jolla, USA). All experiments were done in duplicate three times.
γH2AX FACS: For monitoring DNA double strand break accumulation by γH2AX FACS, 1.05×104 Cells/cm2 were seeded in 6-well plates and left overnight at 37°C in a 5% CO 2 atmosphere. Cisplatin (5µM) or FEN1i (10µM) was later added to cells and incubated for 24h and 48h at 37°C in a 5% CO2 atmosphere. Cells were collected by trypsinization, washed […]
(§1) with ice cold PBS and fixed in 70% ethanol for 1h at -20°C. After removal of the fixative solution by centrifugation, cells were stained with 2 µg/ml of phospho-Histone (γH2AX) Ser139 (16202A, Millipore, UK) to detect DSBs.
(§2) Cell cycle progression: Cells were treated with 20 µg/ml RNase A (12091021, Invitrogen) and then 10 µg/ml Propidium Iodide (P4170, Sigma Aldrich) was added to determine the cell cycle distribution. The samples were analysed on a Beckman-Coulter FC500 flow cytometer using a 488nm laser for excitation and emission data for PI collected using a 620nm bandpass filter (FL3) and a 525nm bandpass filter (FL1) for FITC-anti-phospho-Histone H2A.X. […]
Graphical representation and statistical analysis was performed in GraphPad Prism 7 (GraphPad, La Jolla, USA). […]

ATM-deficient HeLa cells = assay: FEN1 inhibitor cytotoxicity, ATM-deficient HeLa; format: cell-based; settings: vs HeLa control
A2780cis cells = assay: Cell cycle progression, A2780cis; format: cell-based, human; settings: FEN1i plus cisplatin
Description: as §1, §2
(§3) Graphical representation and statistical analysis was performed in GraphPad Prism 7 (GraphPad, La Jolla, USA).
(§4) 3D Spheroid assays: A2780_control and A2780 FEN1_ KO as well as A2780cis_control and A2780cis FEN1_ KO cells were seeded at 4500 cells/cm2 density in ultra-low attachment 6-well plates (174932, Thermo Fisher Scientific) and cultured in 3D Tumorsphere Medium (C28070, PromoCell, UK) at 37°C in a 5% CO2 atmosphere. Cells were keep in culture for 7-10 days, toping up with fresh medium every two days until spheroids structures were formed.

PEO1 cells = assay: Cell cycle progression, PEO1; format: cell-based, human; settings: FEN1i monotherapy
Description: as §1, §2, §3, §4

A2780 cells = assay: Clonogenic assay, A2780; format: cell-based, human
Description: Clonogenic assay: In the clonogenic assay (colony formation assays), 32 cells/cm2 were seeded in 6-well plates and left at 37°C in a 5% CO2 atmosphere. Cisplatin (5µM) and/or FEN1i (10µM) and/or Importazole (5 µM, Selleckem, S8446 ) were added at the indicated concentrations and the plates were left at 37 °C in a 5% CO 2 atmosphere for 14 days. Later, the plates were washed with PBS, fixed and stained with a crystal violet, acetic acid and methanol solution and colonies were counted. […]

[2] = tested on: FEN1 mRNA in A2780cis cells; assay: qRT-PCR FEN1 mRNA expression, A2780cis; format: cell-based, human; settings: 24 h exposure to cisplatin
Description: (§5) (1:200, ab26343). Infrared dye-labelled secondary antibodies (Li-Cor) [IRDye 800CW Donkey Anti-Rabbit IgG and IRDye 680CW Donkey Anti-Mouse IgG] were incubated at a dilution of 1:10000 for 1 h. Membranes were scanned with a LiCor Odyssey machine (700 and 800 nm) to determine protein expression. ß-Tubulin or ß-actin was used as a loading controls for the whole cell lysates. GADPH and YYI were used as loading controls to cytoplasmic and nuclear fractions, respectively. First incubation was with FEN1 antibody and then imaged. This was followed by incubation with loading control and then imaged for analysis. Bar charts show means of optical density (O.D.) ± S.D and all data is representative of at least three independent experiments. qRT-PCR analysis of FEN1 gene expre ssion: RNA was extracted using the RNeasy Mini Kit (74104, Qiagen) and quantified using a Nanodrop 2000c (Thermo Fisher Scientific). cDNA synthesis was performed using the RT2 First Strand Kit (330404, Qiagen). Real time PCR was carried out on an Applied Biosystems […] FAST cycler.
(§6) Neutral COMET assay: 1.0x10^5 cells per well were seeded in 6 well tissue culture plates and incubated at 37°C and 5% CO2 overnight. […] Fifty comets were scored per sample using Comet Assay III/IV image analysis software (Perceptive Instruments, Bury St Edmonds, UK). […]

FEN1 mRNA in A2780 cells = assay: qRT-PCR FEN1 mRNA expression, A2780; format: cell-based, human; settings: 24 h exposure to cisplatin
Description: as §5, §6

**Q.** Which results are given for Cc1csc2c1c(=O)n(O)c(=O)n2-c1ccccc1 [PTPD, 3-hydroxy-5-methyl-1-phenylthieno [2,3 d]pyrimidine-2,4(1H,3H)-dione]?
**A.** apoptosis (PEO4 cells): accumulation of apoptotic cells; sensitivity to FEN1 inhibitor [1]: did not observe any increased sensitivity; DSBs (γH2AX) (POLβ KO A2780cis cells): increased DSBs; sensitivity to FEN1 inhibitor (ATM-deficient HeLa cells): did not observe increased sensitivity; cell cycle effect (A2780cis cells): G2/M cell cycle arrest; cell cycle effect (PEO1 cells): S-phase and G2/M-phase cell cycle arrest

**Q.** Which cisplatin sensitivity (A2780 cells) does the source give for N.N.[Cl][Pt][Cl] [cisplatin] here?
**A.** cisplatin-sensitive

**Q.** And the “FEN1 mRNA expression after cisplatin” value [2]?
**A.** increased by day 1 and persisted at least until day 4

**Q.** And the “FEN1 mRNA expression after cisplatin” value (FEN1 mRNA in A2780 cells)?
**A.** transient induction of FEN1 mRNA expression on day 1
